# How the values were obtained:
# [1] = tested on: gastric cancer MGC-803 transplanted tumor; experiment: Antitumor rate of oral administration in mice with MGC-803 transplanted tumor; format: in vivo; conditions: for Tumor inhibition rate (%): d0-d12 every 2 days, 7 times, tumor weight
# Method: Antitumor rate of oral administration of the compound towards MGC-803 mice with transplanted tumor
# After 1 week of adaptation, the mice were inoculated with gastric cancer MGC-803 tumor tissue subcutaneously. After the tumor grew for 100-300 mm^3, the animals were randomly grouped. For the drug group, each group of each compound had 6 mice, and 12 mice were in the control group. The intragastric administration was employed and the dosage of Ii, Ij, Ik and Il was 25 and 50 mg/kg. The positive control was CA4, the administration time was d0, d2, d4, d6, d8, d10, d12 days, 7 times in total. The tumor size was measured 3 times per week, together with mice weight. The mice were executed 14 days after inoculation and the tumor mass was taken and measured for its weight. The tumor inhibition rate was calculated as tumor weight inhibition rate, and the formula is tumor weight inhibition rate %=(1-treatment group average tumor weight/control group average tumor weight)×100%.
# [2] = tested on: human lung cancer cell A549; experiment: In vitro antitumor activity on tumor cell lines (CCK-8 method), A549; format: cell-based; conditions: Homo sapiens, A549, 72 hours
# Method: (§1) Evaluation of In Vitro Antitumor Activity of Compounds on Multiple Tumor Cell Lines (CCK-8 Method)
# (§2) Take the living cells with more than 90% cells for testing. The cell proliferation inhibition test was performed using the EnoGeneCell™ Counting Kit-8 (CK-8) cell viability test kit. The cell was digested, counted and prepared into a cell suspension with a concentration of 1×10^5/mL. 100 μL cell suspension (1×10^4 cells per hole) was added to each hole in the 96-well plate. The 96-well plate was cultured in a 37° C., 5% CO2 incubator for 24 hours. With every hole added with 100 μL respective drugged cultured medium, control groups were set up, including negative control group, solvent control group, and positive control group. Each group has 5 holes. The 96-well plates were cultured at 37° C., in 5% CO2 incubator for 72 hours. Afterward, 10 μL CCK-8 solution was added to each hole, and the culture plate was incubated in the incubator for 4 hours, and the OD value at 450 nm was determined by enzyme labeling instrument. The inhibition rate and IC50 value of these compounds on tumor cells such as human gastric cancer cell MGC-803, human liver cancer cell HepG2, human lung cancer cell A549 and human breast cancer cell MDA-MB-231 were calculated.
# [3] = single intragastric administration, mice
# Method: (§3) Acute Toxicity Test of Single Gastric Administration in Mice
# (§4) Kunming mice (weight 17-22 g, equal male and female) were randomly grouped according to body weight, with 10 mice maximum per dose group in the experiment. […] Given by single intraperitoneal injection and a single intragastric injection, observations were done after 0.25 h, 0.5 h, 1 h, 2 h, 4 h, and 24 h respectively. The mortality rate was recorded. Afterward, the groups were observed once everyday, and the mortality rate was recorded for 14 days. On day 15, the living mice were sacrificed for pathological dissection.
# [4] = tested on: Hela cervical cancer cell line; experiment: In vitro proliferation inhibition of Hela cervical cancer cell line (MTT method); format: cell-based; conditions: Homo sapiens; Hela cervical cancer cell line, 48 hours drug exposure; read-out: IC50
# Method: Evaluation of In Vitro Antitumor Activity of Hela Cervical Cancer Tumor Cell Lines with Compounds (MTT Method)
# The cells were cultured in RPMI1640 medium containing 200 mL/L fetal bovine serum so that the cells were kept at logarithmic growth. The cells were inoculated to 96-well plate, with a density of 4˜8×10^4/ml, 37° C., and pre-cultured for 24 hours with added drugs. The drugs were set at 6 concentrations, each has 3 holes. After 48 hours of consequent effect, the nutrient solution was then removed and the cells were left for air-drying. Each hole was then added with cold 500 g/L trichloroacetic acid (TCA) 50 μL (final concentration of 100 g/L). After setting for 60 minutes, it was then rinsed for 4-5 times with ionized water and dried. Each hole then was added with 4 g/L SRB 100 μL left for 30 mins. Then it was rinsed with 10 mL/L acetic acid for 4 times, dried. Then 10 mmol Tris-base 200 μL per hole was added, then shaked and mixed, subsequently, oscillating on the plate oscillator for 5 min. The enzyme-linked immunoassay was used to determine the A value. To calibrate, a blank control was used, with a wavelength of 490 nm. Tumor inhibition rate (%)=(Average A value of the control cell hole−Average A value of the drugged hole A)/Average A value of the control cell hole×100%. The positive control cell holes were CA4, CB1, and CB1N. To calculate the IC50 value, the Logit method was used according to the cell growth inhibition rate of different concentrations of the drug.
# [5] = tested on: human liver cancer cell HepG2; experiment: In vitro antitumor activity on tumor cell lines (CCK-8 method), HepG2; format: cell-based; conditions: Homo sapiens, HepG2, 72 hours
# Method: as §1, §2
# [6] = tested on: human gastric cancer cell MGC-803; experiment: In vitro antitumor activity on tumor cell lines (CCK-8 method), MGC-803; format: cell-based; conditions: Homo sapiens, MGC-803, 72 hours
# Method: as §1, §2
# [7] = tested on: human breast cancer cell MDA-MB-231; experiment: In vitro antitumor activity on tumor cell lines (CCK-8 method), MDA-MB-231; format: cell-based; conditions: Homo sapiens, MDA-MB-231, 72 hours
# Method: as §1, §2
# in vivo = conditions: both, Kunming, mouse, po
# Method: as §3, §4
smiles,measurement,setting,value
"COc1ccc(CCc2cc(OC)c(OC)c(OC)c2)cc1OC(=O)CCn1cc(F)c(=O)[nH]c1=O [Compound Il, 5-(3,4,5-trimethoxyphenethyl)-2-methoxyphenyl-3-(5-fluoro-2,4-dioxo-3,4-dihydropyrimidin-1(2H)-yl)propanoate]",Tumor inhibition rate (%),[1]; 25 mg/kg intragastric,65%
same,Tumor inhibition rate (%),[1]; 50 mg/kg intragastric,90%
same,tumor size course,[1]; about 8 days after administration,tendency to shrink
same,IC50,[2],< 0.3 nM
same,LD50,[3],1228 mg/kg
same,IC50,[4],29.6 nM
same,IC50,[5],0.4 nM
same,IC50,[6],< 0.3 nM
same,IC50,[7],0.25 nM
same,LD50 at 14 days,in vivo,> 1000 mg/kg
